# Source: patent US8815529B2, “Sulfotransferase assay” (Research & Diagnostics Systems, Inc., priority 2011, dated 2014)
# What was measured:
# sulfotransferases = conditions: reported; cited from earlier work
# gPAPP [1] = molecular target: T1, gPAPP (Mus musculus, UniProt Q80V26); experiment: Specificity of gPAPP on 3′-AMP, 5′-AMP, PAP and PAPS (phosphate release); format: biochemical; conditions: for activity of gPAPP alone on the nucleotide: 1 μg gPAPP; for activity of gPAPP alone on the nucleotide / phosphate released by gPAPP versus amount of gPAPP: 10 mM Mg2+; for phosphate released by gPAPP versus amount of gPAPP: 50 nmol PAP or PAPS, pH 7.5, 20 minutes
# T1 construct: N-terminal His-tagged recombinant protein containing amino acids from E51 to K356; His tag (N); host or cells: CHO cells
# T1 sequence (Q80V26 51-356): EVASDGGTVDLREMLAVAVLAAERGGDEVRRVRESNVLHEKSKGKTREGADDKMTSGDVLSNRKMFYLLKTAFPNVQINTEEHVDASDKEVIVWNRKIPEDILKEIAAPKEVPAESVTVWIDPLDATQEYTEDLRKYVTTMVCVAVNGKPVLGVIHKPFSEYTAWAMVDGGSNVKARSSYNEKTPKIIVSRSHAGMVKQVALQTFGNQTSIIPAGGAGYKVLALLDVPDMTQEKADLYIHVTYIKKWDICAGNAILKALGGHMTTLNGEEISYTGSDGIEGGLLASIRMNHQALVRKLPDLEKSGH
# Protocol: (§1) In the following examples, the gPAPP used was recombinant mouse gPAPP expressed in CHO cells as an N-terminal His-tagged recombinant protein containing amino acids from E51 to K356, created by R & D Systems. The sequence was based on accession number NP 808398 from the National Center for Biotechnology Information. The chondroitin sulfate (CS) and p-nitrophenol (pNP) were obtained from Sigma Aldrich. The PAPS was prepared by R & D Systems using recombinant S. cerevisiae ATP sulurylase and P. chrysogenum APS kinase. The APS kinase was also prepared by R & D Systems. Recombinant human SULT1A1, CHST3, CD73, TNAP and Malachite Green Phosphate Detection Kit were from R & D Systems. Protein concentrations were quantified using the Bradford assay as described by Bradford, M. M., A rapid and sensitive method for the quantitation of microgram quantities of protein utilizing the principle of protein-dye binding. Anal Biochem. 1976. Vol 72, Page 248-254, the relevant portions of which are hereby incorporated by reference. Phosphate levels were determined using the Malachite Green Phosphate Detection Kit available from R & D Systems, according to the package instructions. All examples were performed in a buffer of 25 mM Tris at pH 7.5.
# The specificity of gPAPP was first tested on 3′-AMP, 5′-AMP and PAP in the absence or presence of CD73 by combining 10 nmol of either 3′-AMP, 5′-AMP or PAP with 1 μg gPAPP and/or 0.1 μg CD73 in 50 μL assay buffer containing 10 mM Mg^2 at pH 7.5. In a parallel experiment, the same amount of nucleotide was combined with tissue-non-specific alkaline phosphatase (TNAP) at pH 9.0. The ratio between the phosphate released by gPAPP and/or CD73 (Pi) and the phosphate released by TNAP (PiTNAP) was plotted versus the nucleotide and phosphatases in FIG. 5. […] When gPAPP and CD73 were used together, they released twice as much phosphate from PAP than gPAPP alone.
# The specificity of gPAPP was tested on PAP and PAPS. In this example, 50 nmol of either PAP or PAPS was treated with different amounts of gPAPP in 50 μL assay buffer containing 10 mM Mg^2 at pH 7.5 for 20 minutes. The released phosphate was plotted versus the amount of gPAPP.
# SULT1A1 [2] = molecular target: T2, SULT1A1 (Homo sapiens, UniProt P50225); conditions: read-out: half maximal velocity (Km); reported; cited from earlier work
# T2 sequence (P50225 whole entry): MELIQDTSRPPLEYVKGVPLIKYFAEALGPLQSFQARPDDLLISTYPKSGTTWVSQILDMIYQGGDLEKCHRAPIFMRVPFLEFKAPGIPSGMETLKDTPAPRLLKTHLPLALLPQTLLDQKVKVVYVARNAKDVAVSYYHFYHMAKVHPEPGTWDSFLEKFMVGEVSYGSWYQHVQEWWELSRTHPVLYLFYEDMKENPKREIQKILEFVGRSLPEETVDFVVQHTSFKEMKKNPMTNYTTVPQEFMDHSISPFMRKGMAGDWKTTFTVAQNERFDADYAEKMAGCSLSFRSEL
# SULT1A1 [3] = molecular target: T2, SULT1A1; experiment: SULT1A1 velocity versus pNP concentration, gPAPP/CD73-coupled assay; format: biochemical; parameters: purchased R & D Systems; conditions: 0.1 μg SULT1A1, 0.25 mM PAPS, gPAPP and CD73
# Protocol: as §1, with “Anal Biochem. 1976. Vol 72, Page 248-254, the relevant portions of which are hereby incorporated by reference.” left out, “All examples were performed in a buffer of 25 mM Tris at pH 7.5.” left out
# A series of reactions were performed by combining increasing concentrations of pNP with 0.1 μg SULT1A1, 2 μg PAPP and 0.1 μg CD73 in 200 μL of an assay buffer containing 0.25 mM PAPS, 10 mM MgCl2 at pH 7.5. […] These values are consistent with reported values for SULT1A1 determined using radioisotope assays in the literature.
# CHST3 = molecular target: T3, CHST3 (Homo sapiens, UniProt Q7LGC8); experiment: CHST3 substrate curves for CS and PAPS, gPAPP-coupled assay; format: biochemical
# T3 construct: purchased R & D Systems
# T3 sequence (Q7LGC8 1-479): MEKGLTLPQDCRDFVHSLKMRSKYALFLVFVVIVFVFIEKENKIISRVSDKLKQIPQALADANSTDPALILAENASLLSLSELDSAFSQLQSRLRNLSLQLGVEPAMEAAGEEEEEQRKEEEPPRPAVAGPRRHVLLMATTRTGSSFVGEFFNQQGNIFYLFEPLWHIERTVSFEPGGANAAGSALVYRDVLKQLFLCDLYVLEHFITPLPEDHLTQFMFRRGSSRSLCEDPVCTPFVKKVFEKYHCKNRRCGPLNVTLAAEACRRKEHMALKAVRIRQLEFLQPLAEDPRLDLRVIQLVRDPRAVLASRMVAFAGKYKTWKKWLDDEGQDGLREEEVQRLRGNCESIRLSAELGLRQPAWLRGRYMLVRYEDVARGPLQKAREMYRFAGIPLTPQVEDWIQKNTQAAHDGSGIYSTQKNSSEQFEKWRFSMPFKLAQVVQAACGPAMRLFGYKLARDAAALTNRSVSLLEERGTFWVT
# Protocol: as §1
# Carbohydrate sulfotransferase 3 (CHST3) is a sulfotransferase which is known to catalyze the sulfation of N-acetylgalactosamine at the 6-O position. In a first series of reactions, 1 μg CHST3 was combined with 1 μg gPAPP and increasing concentrations of CS in 50 μl assay buffer containing 0.8 mM PAPS, 10 mM MgCl2 at pH 7.5. In a second series of reactions, 0.4 μg CHST3 was combined with 1 μg gPAPP and increasing concentrations of PAPS in 50 μL assay buffer containing […], 10 mg/ml CS, 10 mM MgCl2 at pH 7.5.
# An enzyme dose curve was then created for CHST3 at the optimal concentrations for both the donor and acceptor substrates in FIG. 11. To create the dose curve, 1 μg gPAPP was combined with increasing amounts of CHST3 in the presence of 10 mg/ml of CS and 0.5 mM of PAPS in 50 μl assay buffer containing 10 mM MgCl2 at pH 7.5.
# gPAPP [4] = molecular target: T1, gPAPP; experiment: Inhibition of gPAPP hydrolysis of PAP by PAPS; format: biochemical; conditions: 0.5 mM PAPS, amount of PAP greater than the coupling capacity
# Protocol: as §1, with “Vol 72, Page 248-254, the relevant portions of which are hereby incorporated by reference.” left out, “All examples were performed in a buffer of 25 mM Tris at pH 7.5.” left out
# In this example, the coupling capacity of gPAPP was determined. […] The coupling capacity of gPAPP was determined by combining 1 μg gPAPP with increasing amounts of PAP, in the presence or absence of 0.5 mM PAPS in 50 μL assay buffer containing 10 mM Mg^2+ at pH 7.5 for either 20 or 40 minutes. […]
molecule,measurement,setting,value
"Nc1ncnc2c1ncn2[C@@H]1O[C@H](COP(=O)(O)O)[C@@H](OP(=O)(O)O)[C@H]1O [PAP, 3′-phosphoadenosine-5′-phosphate]",inhibition of sulfotransferases,sulfotransferases,potent inhibitor
same,phosphate released by gPAPP and CD73 together compared with gPAPP alone,"gPAPP [1]; 10 nmol nucleotide, 1 μg gPAPP and 0.1 μg CD73, 10 mM Mg2+, pH 7.5",twice as much
same,activity of gPAPP alone on the nucleotide,"gPAPP [1]; 10 nmol nucleotide, pH 7.5",showed activity
same,phosphate released by gPAPP versus amount of gPAPP,gPAPP [1],increased with the amount of the enzyme
"Nc1ncnc2c1ncn2[C@@H]1O[C@H](COP(=O)(O)O)[C@@H](O)[C@H]1O [5′-AMP, 5-adenosine monophosphate]",activity of gPAPP alone on the nucleotide,"gPAPP [1]; 10 nmol nucleotide, pH 7.5",not
"O=[N+]([O-])c1ccc(O)cc1 [pNP, p-nitrophenol]",Km,SULT1A1 [2],< 1 µM
same,concentration above which substrate inhibition was present,SULT1A1 [3],above 4 mM
same,concentration for half maximum velocity,SULT1A1 [3]; projected,< 1.0 µM
chondroitin sulfate [CS],concentration for half-maximal velocity (Km for CS),"CHST3; 1 μg CHST3, 0.8 mM PAPS",about 2 mg/ml
same,substrate inhibition,"CHST3; 1 μg CHST3, 0.8 mM PAPS",no substrate inhibition
same,optimal concentration (visually determined),CHST3; highest point of the curve of FIG. 10A,> 5 mg/mL
"Nc1ncnc2c1ncn2[C@@H]1O[C@H](COP(=O)(O)OS(=O)(=O)O)[C@@H](OP(=O)(O)O)[C@H]1O [PAPS, 3′-phosphoadenosine-5′-phosphosulfate]",level above which substrate inhibition occurred,"CHST3; 0.4 μg CHST3, 10 mg/ml CS",above 0.5 mM
same,Km,"CHST3; 0.4 μg CHST3, 10 mg/ml CS, read-out: concentration for half-maximal velocity (Km for PAPS)",< 100 µM
same,optimal concentration (visually determined),CHST3; highest point of the curve of FIG. 10B,about 0.5 mM
same,inhibition of the hydrolysis of PAP,gPAPP [4],~20%
same,phosphate released by gPAPP versus amount of gPAPP,gPAPP [1],showed no change
Nc1ncnc2c1ncn2[C@@H]1O[C@H](CO)[C@@H](OP(=O)(O)O)[C@H]1O [3′-AMP],activity of gPAPP alone on the nucleotide,"gPAPP [1]; 10 nmol nucleotide, pH 7.5",not
